Test results published in patent EP4644383A1 (Jiangsu Yahong Meditech Co., Ltd., priority 2022, dated 2024).
pIC50: −log10 of the molar value. Where two headings read alike, the source gives them in different places.

What was measured:
[1] = system: RT112-FGFR3-V555M cells; test: Inhibition of proliferation activity of RT112-FGFR3-V555M cells (CellTiter-Glo); assay type: cell-based; conditions: read-out: IC50 (nM) RT112-FGFR3-V555M
Protocol: (§1) The present experiment used CellTiter-Glo® Luminescent Cell Viability Assay (Promega: G7573) kit, which was a homogeneous cell viability detection method and determined the cell viability of cultured cells by quantifying ATP. • ① RT112-FGFR3-V555M cells were cultured in MEM complete medium (Gibco: 51200038) (10% FBS (Gibco: 10091-148)+1% Pen Strep (Gibco: 15140122)+1% NEAA (Gibco: 11140050)) under the condition of 37°C and 5% CO2. • (2) The cells in logarithmic growth phase were harvested and counted using a […]. The trypan blue exclusion method was used to detect cell viability to ensure the cell viability was above 90%. • ③ The cell density was adjusted using MEM complete medium, and then, the cells were seeded into a 96-well cell culture plate at 90 µL/well with a total of 5000 cells. • ④ The 96-well plate with the cells was placed under the condition of 37°C and 5% CO2 to be cultured for 24 hours. • ⑤ 24 hours later, a 10-fold drug solution was prepared starting from a maximum drug concentration of 10 µM and 4-fold serially diluted into10 concentrations. Then, 10 µL of each of the serially diluted compounds was transferred to the corresponding experimental wells of a 96-well cell plate, with two replicates for each drug concentration. • ⑥ The 96-well plate with the cells that had been treated with the drugs was placed under the condition of 37°C and 5% CO2 to be further cultured for 72 hours, and then analyzed by CTG. • ⑦ The CTG reagent was melted and the cell plate was equilibrated to room temperature for 30 minutes. • ⑧ 50 µL of the CTG solution was added to each well. • ⑨ The cell plate was shaken on an orbital shaker for 5 minutes to lyse the cells. • ⑩ The cell plate was placed at room temperature for 20 minutes to stabilize the luminescence signal. The luminescence values were read to collect the data. • ⑪ The data were analyzed using XLFit excel plugin version 5.5.0.5, and fitted with non-linear S-curve regression to obtain the dose-response curves and thus calculate the IC50 values. Y = Bottom + (Top-Bottom)/((1+(IC50/X))^(∧) HillSlope [formula]
(§2) "Top" refers to the maximum response, "Bottom" refers to the minimum response, and "HillSlope" refers to the slope of the curve.
(§3) "Max" represents the average value of the cell+DMSO control, and "Min" represents the average value of the medium control+DMSO.

[2] = system: RT112 cells (bladder cancer cells); test: Inhibition of proliferation activity of RT112 cells (CellTiter-Glo); assay type: cell-based; conditions: Homo sapiens, read-out: IC50 (nM) RT112
Protocol: as §1, with “RT112” for “RT112-FGFR3-V555M”, “3000” for “5000”
as §2, §3

[3] = target: T1, FGFR1 (Homo sapiens, UniProt P11362); test: FGFR1 kinase activity inhibition assay (LanthaScreen TR-FRET); assay type: biochemical; conditions: for IC50: FGFR1 kinase, TR-FRET, read-out: IC50 (nM) FGFR1
T1 construct: cytoplasmic domain [398-822 (terminal) amino acids]; purchased Carna 08-133
In short: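 Emission ratio 520 nm/495 nm by TR-FRET after stopping reaction with 10 mM EDTA and 60 min incubation at 22°C. Inhibition normalized between no-enzyme (min) and DMSO (max) controls, then fitted to a four-parameter curve (Top, Bottom, HillSlope).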

[4] = RT-112, RT112 cells, 72 hours, CTG
[5] = RT112-FGFR3-V555M cells, 72 hours, CTG

T1 sequence (P11362 398-822): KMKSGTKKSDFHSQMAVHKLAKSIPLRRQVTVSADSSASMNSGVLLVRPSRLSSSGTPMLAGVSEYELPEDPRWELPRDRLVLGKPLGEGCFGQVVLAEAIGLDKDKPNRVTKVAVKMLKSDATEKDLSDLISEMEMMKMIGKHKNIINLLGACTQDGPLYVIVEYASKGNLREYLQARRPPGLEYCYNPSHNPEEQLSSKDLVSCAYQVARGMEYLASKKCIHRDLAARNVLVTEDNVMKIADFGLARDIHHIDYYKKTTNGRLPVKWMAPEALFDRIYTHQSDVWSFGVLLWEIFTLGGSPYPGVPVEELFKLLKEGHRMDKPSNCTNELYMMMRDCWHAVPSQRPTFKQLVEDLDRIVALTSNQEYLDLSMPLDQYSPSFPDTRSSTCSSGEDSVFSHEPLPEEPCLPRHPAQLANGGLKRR

Compound | IC50 ([1]; 72 h) [nM] | IC50 ([2]; RT-112, 72 h) [nM] | IC50 [3] [nM] | IC50 [2, 4] [nM] | IC50 [1, 5] [nM] | pIC50 [3]
C[C@@H](Oc1ccc2[nH]nc(-c3ccc(S(C)(=N)=O)nc3)c2c1)c1c(Cl)cncc1Cl (stereo partly drawn) [Comparative Example 85, (5-(5-((R)-1-(3,5-dichloropyridin-4-yl)ethoxy)-1H-indazol-3-yl)pyridin-2-yl)(imino)(methyl)-sulfanone, reference compound] | 334 | 58.8 | – | – | – | –
C[C@@H](Oc1cc(F)c2[nH]nc(-c3cnn(CCN4CCOCC4)c3)c2c1)c1c(Cl)cncc1Cl [Example 12, (R)-4-(2-(4-(5-(1-(3,5-dichloropyridin-4-yl)ethoxy)-7-fluoro-1H-indazol-3-yl)-1H-pyrazol-1-yl)ethyl)morph oline] | – | – | 10 to 100 | 43.1 | – | –
C[C@@H](Oc1ccc2[nH]nc(-c3cnn(C)c3)c2n1)c1c(Cl)cncc1Cl [Example 29, (R)-5-(1-(3,5-dichloropyridin-4-yl)ethoxy)-3-(1-methyl-1H-pyrazol-4-yl)-1H-pyrazolo[4,3-b]pyridine] | – | – | 1 to 10 | 3.6 | – | –
C[C@@H](Oc1ccc2[nH]nc(-c3cnn(CCN4CCN(C)C(=O)C4)c3)c2n1)c1c(Cl)cncc1Cl [Example 54, (R)-4-(2-(4-(5-(1-(3,5-dichloropyridin-4-yl)ethoxy)-1H-pyrazolo[4,3-b]pyridin-3-yl)-1H-pyrazol-1-yl)ethyl)-1-methylpiperazin-2-one] | – | – | 1 to 10 | 14 | – | –
C[C@@H](Oc1ccc2[nH]nc(-c3cnn(CCN4CCS(=O)(=O)CC4)c3)c2n1)c1c(Cl)cncc1Cl [Example 55, (R)-4-(2-(4-(5-(1-(3,5-dichloropyridin-4-yl)ethoxy)-1H-pyrazolo[4,3-b]pyridin-3-yl)-1H-pyrazol-1-yl)ethyl)thiomorph oline 1,1-dioxide] | – | – | 10 to 100 | 15.9 | – | –
CC(Oc1ccc2[nH]nc(-c3cnn(C)c3)c2c1)c1cccc2ncccc12 (stereo not shown) [Example 88, 5-(1-((3-(1-methyl-1H-pyrazol-4-yl)-1H-indazol-5-yl)oxy)ethyl)quin oline] | – | – | 10 to 100 | 167 | – | –
CC(Oc1ccc2[nH]nc(-c3cnn(C)c3)c2c1)c1cccc2nccnc12 (stereo not shown) [Example 92, 5-(1-((3-(1-methyl-1H-pyrazol-4-yl)-1H-indazol-5-yl)oxy)ethyl)quin oxaline] | – | – | 1 to 10 | 24.3 | – | –
Cc1ccc2ncccc2c1C(C)Oc1ccc2[nH]nc(-c3cnn(C)c3)c2c1 (stereo not shown) [Example 95, 6-methyl-5-(1-((3-(1-methyl-1H-pyrazol-4-yl)-1H-indazol-5-yl)oxy)ethyl)quinolinee] | – | – | – | 23.4 | 110 | 7.00 to 8.00
CC(Oc1ccc2[nH]nc(-c3cnn(C)c3)c2c1)c1cccn2ncnc12 (stereo not shown) [Example 101, 8-(1-((3-(1-methyl-1H-pyrazol-4-yl)-1H-indazol-5-yl)oxy)ethyl)-[1,2,4]triazolo[1,5-a]pyridine] | – | – | 10 to 100 | 85 | – | –
CC(Oc1ccc2[nH]nc(-c3cnn(C)c3)c2c1)c1c(C(F)F)ccc2ncccc12 (stereo not shown) [Example 127, 6-(difluoromethyl)-5-(1-((3-(1-methyl-1H-pyrazol-4-yl)-1H-indazol-5-yl)oxy)ethyl)quinoline] | – | – | > 100 | 25.5 | 118 | –
CC(Oc1ccc2[nH]nc(-c3cnn(C)c3)c2c1)c1c(CF)ccc2ncccc12 (stereo not shown) [Example 130, 6-(fluoromethyl)-5-(1-((3-(1-methyl-1H-pyrazol-4-yl)-1H-indazol-5-yl)oxy)ethyl)q uinoline] | – | – | 10 to 100 | 37.9 | 152 | –
CC(Oc1ccc2[nH]nc(-c3cnn(C)c3)c2c1)c1cc(Cl)cc2nccnc12 (stereo not shown) [Example 136, 7-chloro-5-(1-((3-(1-methyl-1H-pyrazol-4-yl)-1H-indazol-5-yl)oxy)ethyl)qu inoxaline] | – | – | 10 to 100 | 47.5 | 119 | –
Cc1cc2nccnc2c(C(C)Oc2ccc3[nH]nc(-c4cnn(C)c4)c3c2)n1 (stereo not shown) [Example 183, 7-methyl-5-(1-((3-(1-methyl-1H-pyrazol-4-yl)-1H-indazol-5-yl)oxy)ethyl)pyridino [3,4-b]pyrazine] | – | – | 10 to 100 | 9.7 | 10.4 | –
COCC(=O)N1CC(n2cc(-c3n[nH]c4ccc(OC(C)c5cccc6nccnc56)cc34)cn2)C1 (stereo not shown) [Example 188, 2-methoxy-1-(3-(4-(5-(1-(quinoxalin-5-yl)ethoxy)-1H-indazol-3-yl)-1H-pyrazol-1-yl)azetidin-1-yl)ethan-1-one] | – | – | 10 to 100 | 10.7 | 70.1 | –
CC(Oc1ccc2[nH]nc(-c3cnn(C4CN(C(=O)C(C)(C)O)C4)c3)c2c1)c1cccc2nccnc12 (stereo not shown) [Example 190, 2-hydroxy-2-methyl-1-(3-(4-(5-(1-(quinoxalin-5-yl)ethoxy)-1H-indazol-3-yl)-1H-pyrazol-1-yl)azetidin-1-yl)propan-1-one] | – | – | 10 to 100 | 18.6 | 81.6 | –
CC(=O)N1CC(n2cc(-c3n[nH]c4ccc(OC(C)c5cccc6nccnc56)cc34)cn2)C1 (stereo not shown) [Example 218, 1-(3-(4-(5-(1-(quinoxalin-5-yl)ethoxy)-1H-indazol-3-yl)-1H-pyrazol-1-yl)azetidin-1-yl)ethan-1-one] | – | – | 10 to 100 | 16.7 | 64.7 | –
CC(Oc1cc2c(-c3cnn(C)c3)n[nH]c2cc1F)c1cc(Cl)cc2nccnc12 (stereo not shown) [Example 227, 7-chloro-5-(1-((6-fluoro-3-(1-methyl-1H-pyrazol-4-yl)-1H-indazol-5-yl)oxy)ethyl)qu inoxaline] | – | – | 1 to 10 | 34.5 | 128 | –
CC(Oc1ccc2[nH]nc(-c3cnn(C)c3)c2c1)c1nc(C(F)F)cc2nccnc12 (stereo not shown) [Example 236, 7-(difluoromethyl)-5-(1-((3-(1-methyl-1H-pyrazol-4-yl)-1H-indazol-5-yl)oxy)ethyl)pyridino[3,4-b]pyrazine] | – | – | 1 to 10 | 15.5 | 38.9 | –
[2H]C([2H])([2H])c1cc2nccnc2c(C(C)Oc2ccc3[nH]nc(-c4cnn(C)c4)c3c2)n1 (stereo not shown) [Example 241] | – | – | – | 13.5 | 18.2 | 8.00 to 9.00
